Reference: article PMC10373102 (Molecular microbiology, 2011)

Target: T1, CtdQ; acylating aldehyde dehydrogenase (ADA) (Acidovorax sp. JS42, UniProt A1W2K2)
T1 sequence (A1W2K2 1-302): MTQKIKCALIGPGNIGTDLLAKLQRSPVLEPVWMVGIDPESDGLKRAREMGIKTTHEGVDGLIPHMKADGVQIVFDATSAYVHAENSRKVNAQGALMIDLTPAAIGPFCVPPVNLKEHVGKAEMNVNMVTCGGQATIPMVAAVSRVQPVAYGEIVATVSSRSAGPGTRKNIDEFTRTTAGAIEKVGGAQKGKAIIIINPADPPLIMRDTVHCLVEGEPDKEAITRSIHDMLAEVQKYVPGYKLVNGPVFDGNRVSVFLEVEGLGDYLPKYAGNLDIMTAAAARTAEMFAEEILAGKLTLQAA
Experiment: enzyme assay in extract of E. coli expressing ctdQ
Type: biochemical
Conditions: details in SI

| SMILES | enzyme assay in extract of E. coli expressing ctdQ |
| --- | --- |
| CC=O [acetaldehyde] | the enzyme was equally active with acetaldehyde and propionaldehyde |
| CCC=O [propionaldehyde] | the enzyme was equally active with acetaldehyde and propionaldehyde |
